Laboratory results published in patent publication US5476933A, “Azepine synthesis via a diels-alder reaction” (priority 1994, dated 1995).
Where two headings read alike, the source gives them in different places.

Tests used:
[1] = biological target: T1, glycine/NMDA receptor (Rattus norvegicus, UniProt P35439); assay: electrophysiology using Xenopus oocytes; assay type: cell-based
T1 construct: expressed in transfected cells; host or cells: Xenopus oocytes (RNA injected)

[2] = tested on: male Swiss/Webster mice; assay: maximum electroshock-induced seizure (MES) assay; assay type: in vivo, mouse; conditions: anticonvulsant, MES in mice; for ED50: Mus musculus, iv
Method: The anticonvulsant activity of the glycine antagonists may be assessed in the maximum electroshock-induced seizure (MES) assay in mice. […] The seizure stimulus parameters are 50 mA, 60 Hz, rectangular pulse, width 0.8 msec, duration 200 msec. Tonic hind limb extension observed after application of the electrical stimulus is recorded as occurrence of seizure.

[3] = tested on: glycine binding site of the NMDA receptor; conditions: cited from earlier work; for affinity / antagonism at the glycine binding site, in words: literature
[4] = literature; cited from earlier work
[5] = biological target: T2, glycine binding site of the NMDA receptor (Rattus norvegicus, UniProt P35439); assay: 1 μM glycine-stimulated [3H]-MK-801 binding, rat brain membrane homogenates; conditions: for IC50: rat brain homogenates, [3H]-MK-801 binding, 1 μM glycine; for activity (glycine receptor antagonism), in words: structure-activity statements
T2 construct: rat brain membrane homogenates which are enriched in NMDA receptors; tissue Pel-Freez, Rogers, Ark; host or cells: whole rat brain, washed membrane homogenate
Method: ^a Experiments described herein utilizing rat brain homogenates and a
The assay is conducted using rat brain membrane homogenates which are enriched in NMDA receptors. The membranes are prepared as follows. Frozen rat brains (obtained from Pel-Freez, Rogers, Ark.) are homogenized in 15 volumes (w/v) of ice cold 0.32M sucrose. The homogenate is spun at 1,000×g for ten minutes. The supernatant is collected and spun for 20 minutes at 44,000×g. The pellet is suspended in 15 volumes of water (relative to original brain weight). The homogenate is again spun at 44,000×g for twenty minutes. The pellet is resuspended in 5 volumes of water and the suspension is freeze-thawed 2 times. After the final thaw cycle, the suspension is brought to 15 volumes with water and spun at 44,000×g for twenty minutes. The pellet is resuspended in 5 volumes of ice-cold 10 mM HEPES, and is titrated to pH 7.4 with KOH containing 0.04% Triton X-100. Membranes are incubated with the Triton/HEPES buffer at 37° C. for 15 minutes. The volume is then brought to 15 with ice-cold 10 mM HEPES, pH 7.4, and spun/washed three times with spins of 44,000×g between washes. The final pellet is suspended in three volumes of 50 mM HEPES, pH 7.4 and the protein concentration is determined with a standard dye-binding protein assay (Bio-Rad, Richmond, Calif.). The suspension is stored at -80° C. until used. Only HPLC grade water is used for all buffers and suspensions/washings. The extensive washings are necessary to remove as much endogenous glycine from the membrane preparation as possible.
Nonspecific binding is defined as the […] presence of PCP (final concentration: 100 μM). […] A 500 nM concentration (final) of 5,7-dichlorokynurenic (DCK) acid is added to all assay tubes. This concentration of the glycine antagonist DCK "buffers" most of the residual endogenous glycine that is not removed by the extensive washing steps that are carried out during the membrane preparation procedure.
The assays are incubated for 120 minutes at room temperature after which time the membrane-bound radioactivity is isolated from the free radioactivity by vacuum filtration through Whatman glass fiber filters that had been pretreated with 0.3% polyethyleneimine. Filtration is accomplished using a Brandel 48 well cell harvester. Filtered membranes are washed three times with 3 mL each of ice cold buffer. Filters are transferred to scintillation vials and 5 mL of scintillation cocktail is added. The vials are shaken overnight and the radioactivity is counted by liquid scintillation spectroscopy. The assays are done in triplicate and all experiments are conducted at least three times.
Inhibition dose response curves are constructed using increasing concentrations of glycine antagonists from 5 nM to 330 μM.
After constructing inhibition dose response curves and determination of glycine reversibility, Ki values for the glycine antagonists are calculated using the Cheng and Prusoff equation employing the experimentally determined IC50 values, the known concentration of glycine in the assay (1 μM) and the known affinity of glycine for the glycine binding site of the NMDA receptor (100 nM).
Binding Assays and In Vivo Studies.

[6] = biological target: strychnine insensitive glycine site associated with the NMDA receptor complex; conditions: rat brain homogenates, [3H]-glycine binding; footnote b; cited from earlier work
[7] = tested on: guinea pig ileum; conditions: guinea pig ileum contraction; footnote c; cited from earlier work
[8] = tested on: neurons in brain ischemia; conditions: literature; cited from earlier work
[9] = tested on: rodents; conditions: literature; cited from earlier work
[10] = biological target: strychnine insensitive glycine site associated with the NMDA receptor complex; conditions: Swartz et al., cited from earlier work; for Kb: Mol. Pharmacol. 41:1130-1141 (1992), footnote d
[11] = crossing of the blood/brain barrier; conditions: inferred from Ki and MES ED50
[12] = tested on: pigeons; conditions: literature; cited from earlier work
[13] = from electrophysiology using Xenopus oocytes unless otherwise noted, read-out: Ki

O=c1[nH]c2cc(Cl)c(Cl)c([N+](=O)[O-])c2[nH]c1=O [6,7-dichloro-5-nitro-1,4-dihydroquinoxaline-2,3-dione]
Ki [1]: 3.3 nM | ED50 (MES) [2]: 4 to 5 mg/kg

O=C(O)c1cc(O)c2ccc(Cl)cc2n1 [7-Cl-kynurenic acid]
affinity / antagonism at the glycine binding site, in words [3]: relatively high receptor binding affinity in vitro | blood/brain barrier penetration, in words [4]: cannot penetrate the blood/brain barrier

O=C(O)c1cc2ccccc2[nH]1 [indole-2-carboxylic acid]
affinity / antagonism at the glycine binding site, in words [3]: relatively high receptor binding affinity in vitro | blood/brain barrier penetration, in words [4]: cannot penetrate the blood/brain barrier

CC(=O)Nc1ccc2[nH]c(=O)c(O)cc(=O)c2c1 [Compound 12]
IC50 ([5]; read-out: IC50): 92500 nM

O=c1[nH]c2cc(Br)ccc2c(=O)cc1O [Compound 7]
IC50 ([5]; read-out: IC50): 1300 nM | activity (glycine receptor antagonism), in words [5]: enhanced activity | IC50 [6]: 97 nM | IC50 [7]: 1000 nM

Cc1cc2[nH]c(=O)c(O)cc(=O)c2cc1C [Compound 46, 3-Hydroxy-7,8-dimethyl-1-benzazepine-2,5-dione]
IC50 ([5]; read-out: IC50): 7300 nM

O=C(O)[C@@H]1C[C@H](CP(=O)(O)O)CCN1 [CGS 19755]
neuroprotective efficacy, in words [8]: neuroprotective efficacy | PCP-like behavioral effects, in words [9]: adverse PCP-like behavioral side effects

Cc1cccc2c(=O)cc(O)c(=O)[nH]c12 [Compound 43, 3-Hydroxy-9-methyl-1H-1-benzazepine-2,5-dione]
IC50 [5]: inactive

O=c1cc(O)c(=O)[nH]c2c1C1CCC2CC1 [Compound 87, 6,9-Ethano-3-hydroxy-6,7,8,9-tetrahydro-1H-1-benzazepine-2,5-dione]
IC50 ([5]; read-out: IC50): 6700 nM | Ki [1, 13]: 332 nM | ED50 [2]: 8 mg/kg

O=c1cc(O)c(=O)[nH]c2c1CC(Cl)C(Cl)C2 (stereo not shown) [Compound 74, 3-Hydroxy-7,8-dichloro-6,7,8,9-tetrahydro-1H-1-benzazepine-2,5-dione]
IC50 ([5]; read-out: IC50): 3600 nM | Ki [1, 13]: 30 nM | ED50 [2]: 30 mg/kg

O=c1[nH]c2cc(Cl)ccc2c(=O)cc1O [Compound 6]
IC50 ([5]; read-out: IC50): 2500 nM | activity (glycine receptor antagonism), in words [5]: enhanced activity | IC50 [6]: 30 nM | IC50 [7]: 110 nM

O=C(O)C1CC2CC(CP(=O)(O)O)CCC2CN1 (stereo not shown) [LY274614]
neuroprotective efficacy, in words [8]: neuroprotective efficacy

Cc1ccc2[nH]c(=O)c(O)cc(=O)c2c1C [Compound 109, 6,7-dimethyl-3-hydroxy-1H-1-benzazepine-2,5-dione]
IC50 [5]: inactive

Cc1ccc2c(=O)cc(O)c(=O)[nH]c2c1 [Compound 3]
IC50 ([5]; read-out: IC50): 3400 nM | activity (glycine receptor antagonism), in words [5]: enhanced activity | Kb [10]: 470 nM | antagonism, in words [10]: antagonists at the strychnine insensitive glycine site

CC1Cc2[nH]c(=O)c(O)cc(=O)c2CC1C (stereo not shown) [Compound 81, 7,8-dimethyl-3-hydroxy-6,7,8,9-tetrahydro-1H-1-benzazepine-2,5-dione]
IC50 ([5]; read-out: IC50): 9280 nM | Ki [1, 13]: 177 nM | ED50 [2]: 6 mg/kg

Cc1cccc2[nH]c(=O)c(O)cc(=O)c12 [Compound 93, 3-Hydroxy-6-methyl-1H-1-benzazepine-2,5-dione]
IC50 ([5]; read-out: IC50): 196000 nM

CC1c2c([nH]c(=O)c(O)cc2=O)CC(Cl)C1Cl (stereo not shown) [Compound 112, 7,8-dichloro-3-hydroxy-6-methyl-6,7,8,9-tetrahydro,1H-1-benzazepine-2,5-dione]
IC50 ([5]; read-out: IC50): 380 nM | Ki [1, 13]: 7 nM

Cc1cc(C)c2c(=O)cc(O)c(=O)[nH]c2c1 [Compound 97, 6,8-Dimethyl-3-hydroxy-1H-1-benzazepine-2,5-dione]
IC50 ([5]; read-out: IC50): 26000 nM

O=c1cc(O)c(=O)[nH]c2c1C1CCC2C1 (stereo not shown) [Compound 70, 3-hydroxy-6,9-methano-6,7,8,9-tetrahydro-1H-1-benzazepine-2,5-dione]
Ki ([5]; from binding assays (footnote d of Table 2)): 760 nM | IC50 ([5]; read-out: IC50): 8400 nM

NCC(=O)O [glycine]
Kd ([3]; used in Cheng and Prusoff equation, read-out: known affinity of glycine for the glycine binding site of the NMDA receptor): 100 nM

O=c1[nH]c2ccccc2c(=O)cc1O [Compound 1, 3-hydroxy-1H-1-benzazepine-2,5-dione]
IC50 ([5]; read-out: IC50): 7800 nM | Kb [10]: 3000 nM | antagonism, in words [10]: antagonists at the strychnine insensitive glycine site

O=c1cc(O)c(=O)[nH]c2c1CCCC2 [Compound 61, 3-Hydroxy-6,7,8,9-tetrahydro-1H-1-benzazepine-2,5-dione]
IC50 ([5]; read-out: IC50): 34000 nM | Ki [1, 13]: 1650 nM | ED50 [2]: 8 mg/kg | crossing the blood-brain-barrier, relative to 6,7-dichloro-5-nitro-1,4-dihydroquinoxaline-2,3-dione [11]: about 100 times

c1ccc(C2(N3CCCCC3)CCCCC2)cc1 [PCP, phencyclidine]
neuroprotective efficacy, in words [8]: neuroprotective efficacy both in vitro and in vivo | PCP-like behavioral effects, in words [9]: behavioral excitation (hyperlocomotion) | katalepsy, in words [12]: characteristic katalepsy in pigeons

O=c1[nH]c2cc(F)ccc2c(=O)cc1O [Compound 5]
IC50 ([5]; read-out: IC50): 1700 nM | activity (glycine receptor antagonism), in words [5]: enhanced activity

Cc1ccc2[nH]c(=O)c(O)cc(=O)c2c1 [Compound 2]
Kb [10]: 9500 nM | antagonism, in words [10]: antagonists at the strychnine insensitive glycine site

O=c1[nH]c2ccc([N+](=O)[O-])cc2c(=O)cc1O [Compound 11]
IC50 ([5]; read-out: IC50): 300000 nM

Cc1cc2[nH]c(=O)c(O)cc(=O)c2c(C)c1[N+](=O)[O-] [Compound 99, 6,8-Dimethyl-3-hydroxy-7-nitro-1H-1-benzazepine-2,5-dione]
IC50 ([5]; read-out: IC50): 69500 nM

Cc1cc(C)c2[nH]c(=O)c(O)cc(=O)c2c1 [Compound 44, 3-Hydroxy-7,9-dimethyl-1H-1-benzazepine-2,5-dione]
IC50 [5]: inactive

O=c1[nH]c2cc(C(F)(F)F)ccc2c(=O)cc1O [Compound 16]
IC50 ([5]; read-out: IC50): 3400 nM | activity (glycine receptor antagonism), in words [5]: enhanced activity

O=C(Nc1ccc2[nH]c(=O)c(O)cc(=O)c2c1)C(F)(F)F [Compound 13]
IC50 [5]: Inactive

[N-]=[N+]=Nc1ccc2[nH]c(=O)c(O)cc(=O)c2c1 [Compound 14]
IC50 [5]: Inactive

NC1CCN(O)C1=O (stereo not shown) [HA-966]
affinity / antagonism at the glycine binding site, in words [3]: partial agonist with micromolar affinity for the glycine binding site | blood/brain barrier penetration, in words [4]: sufficiently penetrates the blood/brain barrier

O=C(O)c1cc(O)c2c(Cl)cc(Cl)cc2n1 [5,7-dichlorokynurenic acid (DCK), 5,7-dichlorokynurenic acid]
affinity / antagonism at the glycine binding site, in words [3]: relatively high receptor binding affinity in vitro

O=c1[nH]c2ccc(Br)cc2c(=O)cc1O [Compound 15]
IC50 [5]: Inactive

Cc1ccc(C)c2c(=O)cc(O)c(=O)[nH]c12 [Compound 45, 3-Hydroxy-6,9-dimethyl-1H-1-benzazepine-2,5-dione]
IC50 [5]: inactive
